{"source": "paper PMC8203827", "about": "“The Stand-Alone PilZ-Domain Protein MotL Specifically Regulates the Activity of the Secondary Lateral Flagellar System in Shewanella putrefaciens” (Frontiers in Microbiology, 2021)", "target": "T1, MotL (sfGFP-MotL) (Shewanella putrefaciens, UniProt A0ABX8XB40)", "T1 construct": "gene K3G22_17145", "T1 sequence (A0ABX8XB40 1-144)": "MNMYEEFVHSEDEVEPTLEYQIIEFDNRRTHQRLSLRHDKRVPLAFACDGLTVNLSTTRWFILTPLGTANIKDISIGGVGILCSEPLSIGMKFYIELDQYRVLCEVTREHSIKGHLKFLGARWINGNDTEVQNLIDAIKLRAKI", "experiment": "radioligand spot binding on nitrocellulose, phosphorimaging", "conditions": "labelled compound ([…]); […] protein, […] Tris-HCl, […] NaCl, […] MgCl2, […] min, RT; protein purified from strain co-producing phosphodiesterase PdeH", "data": [{"smiles": "Nc1nc2c(ncn2[C@@H]2O[C@@H]3COP(=O)(O)O[C@H]4[C@@H](O)[C@H](n5cnc6c(=O)[nH]c(N)nc65)O[C@@H]4COP(=O)(O)O[C@H]3[C@H]2O)c(=O)[nH]1", "note": "[c-di-GMP]", "values": [{"measurement": "radioligand spot binding on nitrocellulose, phosphorimaging", "result": "Produced under these conditions, robust c-di-GMP binding to MotL could be observed"}]}]}
